We go through seven molecules from US4987126A, “3'-deamino-4'-deoxy-4'-amino anthracyclines” (Farmitalia Carlo Erba S.r.l., priority 1988, dated 1991).

What is called T/C is the ratio of treated to control.

Data set [1] relates to Murine Mammary ca. (MTV/DXR). In words: Effect against Murine Mammary ca. (MTV/DXR). The following applies: C3H/He mice, i.v. once a week for three weeks, optimal dose (mg/Kg): DXR 6, IIa 5; for tumor inhibition: 1 week after last treatment. The format is in vivo. As for the experimental part:
(§1) The compounds were tested by dissolving them, as hydrochlorides, in water.
^a experiment was carried out in C3H/He mice, transplanted s.c. with
(§2) ^b treatment i.v. was carried out once a week for three weeks,
(§3) starting when the tumor was palpable
(§4) ^c percentage of tumor growth inhibition in respect to control was
(§5) calculated 1 week after the last treatment

Data set [2] has as its system human lung adenocarcinoma (A549). Put plainly: Effect against human lung adenocarcinoma (A549). The format is in vivo, human (tumor transplanted in Swissnude mice). The following applies: i.v. once a week for three weeks, 1 week after last treatment; optimal dose (mg/Kg): DXR 6, Ia 9, IIa 5. How it is done:
as §1
(§6) ^a experiment was performed in Swissnude mice, transplanted s.c. with
as §2, §3, §4, §5

Data set [3] has as its system Human Colon adenocarcinoma (LoVo). In words: Effect against Human Colon adenocarcinoma (LoVo). The format is in vivo, human (tumor transplanted in Swissnude mice). The settings on record: for tumor inhibition: i.v. once a week for three weeks, 1 week after last treatment, optimal dose (mg/Kg): DNR 8 tox, DXR 6, Ia 7.5, IIa 4-5; for activity on LoVo tumor (in words): in vivo. As for the experimental part: as §1
^1 experiment was performed in Swissnude mice, transplanted s.c. with
as §2, §3, §4, §5

In data set [4] the test system is Human Colon ca. (LoVo/DXR). In words: Effect against Human Colon ca. (LoVo/DXR). The settings on record: i.v. once a week for three weeks, 1 week after last treatment; optimal dose (mg/Kg): DXR 6, Ia 7.5, IIa 4. The format is in vivo, human (tumor transplanted in Swissnude mice). How it is done: as §1, §6, §2, §3, §4, §5
In data set [5] the test system is P388 ascitic leukemia. Put plainly: Effect against P388 ascitic leukemia. The following applies: for T/C % (median survival time of treated mice/median survival time of control × 100): P388, CDF1 mice, 10^6 cells i.v., single i.v. dose day 1 at optimal dose (mg/Kg): DNR 22.5, DXR 16.9, Ia 19.5, IIa 4; for Toxic death: P388-bearing CDF1 mice, autoptic findings, at optimal dose (mg/Kg): DNR 22.5, DXR 16.9, Ia 19.5, IIa 4. The format is in vivo, murine (CDF1 mice). How it is done:
(§7) The antileukemic activity of Ia and IIa, in comparison with DXR (doxorubicin) and DNR (daunorubicin), was tested against murine P388 and Gross Leukemias.
as §1
^a Experiments were performed in CDF1 mice, inoculated i.v. with
(§8) ^b Single i.v. dose on day 1 after tumor inoculum.
(§9) ^c Median survival time of treated mice/median survival time of
^d Evaluated on the basis of autoptic findings.

In data set [6] the test system is murine Gross leukemia. Put plainly: Effect against murine Gross leukemia. The format is in vivo, murine (C3H/He mice). The following applies: for T/C % (median survival time of treated mice/median survival time of control × 100): Gross leukemia, C3H/He mice, 2 × 10^6 cells i.v., single i.v. dose day 1 at optimal dose (mg/Kg): DNR 15, DXR 13-16.9, Ib 65, Ia 12.5, IIa 4, Id 6.7, IIc 1; for Toxic death: Gross leukemia-bearing C3H/He mice, autoptic findings, at optimal dose (mg/Kg): DNR 15, DXR 13-16.9, Ib 65, Ia 12.5, IIa 4, Id 6.7, IIc 1; for activity on increase of the survival time of mice, Gross leukemia (in words): mouse, in vivo; for potency on Gross leukemia (in words): among all compounds tested. As for the experimental part:
as §7, §1
^a Experiments were performed in C3H/He mice, inoculated i.v. with 2
as §8, §9
^3 Evaluated on the basis of autoptic findings.

Data set [7] concerns Lewis Lung ca. Put plainly: Effect against Lewis Lung ca. The format is in vivo, mouse (C57 B1/6 mice). The following applies: for tumor inhibition / T/C (median survival time of treated mice/median survival time of control × 100): C57 B1/6 mice, 10^5 cells i.v., i.v. once a week for three weeks from day 1, optimal dose (mg/Kg): DXR 6-7.5, DNR 8, Ia 7.5, IIa 4; for tumor inhibition: 1 week after last treatment; for tumor growth inhibition, Lewis lung ca. (in words) / survival time of mice, Lewis lung ca. (in words): model sensitive to DXR; for survival time of mice, Lewis lung ca. (in words): versus DXR. As for the experimental part:
as §1
^a experiment was performed in C57 B1/6 mice, inoculated i.v. with
as §2
starting on day 1 after tumor transplant
as §4, §5
^d median survival time of treated mice/median survival time of […]

In data set [8] the test system is solid tumors. Put plainly: evaluation against different human and solid tumors (Tables 4-8, overall). The format is in vivo, human and murine. The following applies: IIa versus Ia. As for the experimental part: as §1

The structures appear in SMILES notation.

In data set [1], `COc1cccc2c1C(=O)c1c(O)c3c(c(O)c1C2=O)C[C@@](O)(C(=O)CO)C[C@@H]3O[C@H]1C[C@H](N)[C@H](O)[C@H](C)O1` [DXR, doxorubicin, reference compound] came in with a tumor inhibition of 52% and a T/C of 84%. In addition, the tumor inhibition in data set [2] is reported as 44%. Also, the tumor inhibition in data set [3] worked out at 62%. In data set [4], this molecule had a tumor inhibition of 30%. In data set [5], the “T/C % (median survival time of treated mice/median survival time of control × 100)” value is 225% and the Toxic death was 0/10. Moreover, in data set [6], the “T/C % (median survival time of treated mice/median survival time of control × 100)” value was 200-250%; the Toxic death was 0/10; the “activity on increase of the survival time of mice, Gross leukemia (in words)” value was “active”. Also, in data set [7], the tumor inhibition was 85-95%; the “T/C (median survival time of treated mice/median survival time of control × 100)” value is listed as 148-169%; the “tumor growth inhibition, Lewis lung ca. (in words)” value (from here on “tumor growth inhibition”) is “sensitive to DXR”.
In data set [2], `CC(=O)[C@]1(O)Cc2c(O)c3c(c(O)c2[C@@H](O[C@H]2CC[C@H](N)[C@H](C)O2)C1)C(=O)c1ccccc1C3=O` [Ia, 4-demethoxy-3'-deamino-4'-deoxy-4'-aminodaunorubicin] showed a tumor inhibition of 13%. In data set [3], the tumor inhibition was 11% and the “activity on LoVo tumor (in words)” value is “completly inactive”. For the same molecule, in data set [4], the tumor inhibition was determined as 13%. Also, in data set [5], the “T/C % (median survival time of treated mice/median survival time of control × 100)” value came out at 200% and the Toxic death is given as 0/10. Further, in data set [6], the “T/C % (median survival time of treated mice/median survival time of control × 100)” value is listed as 240% and the Toxic death was 0/10. In data set [7], the tumor inhibition came out at 7%; the “T/C (median survival time of treated mice/median survival time of control × 100)” value came out at 104%; the “tumor growth inhibition” value was “inactive”; the “survival time of mice, Lewis lung ca. (in words)” value is “inactive”.
For `COc1cccc2c1C(=O)c1c(O)c3c(c(O)c1C2=O)C[C@@](O)(C(C)=O)C[C@@H]3O[C@H]1C[C@H](N)[C@H](O)[C@H](C)O1` [DNR, daunorubicin, reference compound], in data set [3] (8 mg/Kg i.v. once a week for three weeks, Swissnude mice), the “toxicity mark at the dose” value is reported as “tox”. In data set [3], the tumor inhibition is 54%. Moreover, in data set [5], the “T/C % (median survival time of treated mice/median survival time of control × 100)” value stood at 222% and the Toxic death is 0/10. For the same molecule, in data set [6], the “T/C % (median survival time of treated mice/median survival time of control × 100)” value worked out at 200%; the Toxic death is reported as 0/10; the “activity on increase of the survival time of mice, Gross leukemia (in words)” value was “active”. For the same molecule, in data set [7], the tumor inhibition was 47% and the “T/C (median survival time of treated mice/median survival time of control × 100)” value came to 135%.
For `CC(=O)[C@]1(O)Cc2c(O)c3c(c(O)c2[C@@H](O[C@H]2CC[C@@H](N)[C@H](C)O2)C1)C(=O)c1ccccc1C3=O` [Compound IIa, 4-demethoxy-3'-deamino-4'-deoxy-4'-epi-aminodaunorubicin], the “potency and activity against all solid tumors tested (in words)” value in data set [8] is “more potent and active than Ia”. Moreover, in data set [1], the tumor inhibition turned out to be 44% and the T/C came to 146%. For the same molecule, in data set [2], the tumor inhibition is recorded as 49%. Besides, in data set [3], the tumor inhibition is 54-56% and the “activity on LoVo tumor (in words)” value is “same activity than LoVo/DXR”. In data set [4], this molecule came in with a tumor inhibition of 41%. In data set [5], the “T/C % (median survival time of treated mice/median survival time of control × 100)” value turned out to be 225% and the Toxic death is reported as 0/10. In data set [6], the “T/C % (median survival time of treated mice/median survival time of control × 100)” value is 160%, the Toxic death was 0/10 and the “potency on Gross leukemia (in words)” value is listed as “most potent”. In data set [7], the tumor inhibition is reported as 84%; the “T/C (median survival time of treated mice/median survival time of control × 100)” value is on record as 122%; the “tumor growth inhibition” value is recorded as “active, as DXR”; the “survival time of mice, Lewis lung ca. (in words)” value is given as “less active”.
For `C[C@@H]1O[C@@H](O[C@H]2C[C@](O)(C(=O)CO)Cc3c(O)c4c(c(O)c32)C(=O)c2ccccc2C4=O)CC[C@H]1N` [IIc, 4-demethoxy-3'-deamino-4'-deoxy-4'-epi-aminodoxorubicin], in data set [6], the “T/C % (median survival time of treated mice/median survival time of control × 100)” value turned out to be 217%, the Toxic death is listed as 0/10 and the “potency on Gross leukemia (in words)” value is “most potent”.
Consider `COc1cccc2c1C(=O)c1c(O)c3c(c(O)c1C2=O)C[C@@](O)(C(=O)CO)C[C@@H]3O[C@H]1CC[C@H](N)[C@H](C)O1` [Id, 3'-deamino-4'-deoxy-4'-aminodoxorubicin], for which, in data set [6], the “T/C % (median survival time of treated mice/median survival time of control × 100)” value was 200% and the Toxic death is 0/10.
As for `COc1cccc2c1C(=O)c1c(O)c3c(c(O)c1C2=O)C[C@@](O)(C(C)=O)C[C@@H]3O[C@H]1CC[C@H](N)[C@H](C)O1` [Ib, 3'-deamino-4'-deoxy-4'-aminodaunorubicin], in data set [6], the “T/C % (median survival time of treated mice/median survival time of control × 100)” value is listed as 240% and the Toxic death is 0/10.
